This is an account of results in patent US20240360165A1, “INHIBITORS OF CYCLIN DEPENDENT KINASE 7 (CDK7)” (Syros Pharmaceuticals, Inc., priority 2016, published 2024).

The target in one assay is CDK2/Cyclin E1 complex (Homo sapiens, UniProt P24941). As to the kind of experiment: CDK2 inhibition assay (Caliper/LabChip EZ Reader kinase assay). It counts as biochemical. As to conditions: Table 1, CDK2/Cyclin E1 0.5 nM, ATP 2 mM, 35 min at 27° C. The essentials: (§1)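 Caliper/LabChip EZ Reader mobility-shift assays. CDK9/Cyclin T1 at 8 nM with 2 μM 5-FAM-CDK9tide peptide and 10 mM MgCl2; CDK2/Cyclin E1 at 0.5 nM with 2 μM 5-FAM-CDK7tide and 2 mM MgCl2.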

Another assay has as its system A673 cells. As to the kind of experiment: Inhibition of proliferation of A673 cells (CyQUANT, 72 hour). It counts as cell-based, human. The conditions noted are these: A673 cells, 72 hour, CyQUANT, read-out: Inhibition of Proliferation of A673 Cells (calculated IC50). The essentials: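 Human Ewing's sarcoma A673 cells in DMEM with 10% FBS and 1 mM sodium pyruvate, 37° C, 5% CO2, treated 72 h with compound from 4 μM to […] (0.5 log dilutions). Antiproliferative effect read by CyQUANT assay.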

In assay [1] the target is CDK7/Cyclin H/MAT1 complex (Homo sapiens, UniProt P50613). As to the kind of experiment: CDK7 inhibition assay (Caliper/LabChip EZ Reader kinase assay). The conditions noted are these: Table 1, CDK7/Cyclin H/MAT1 6 nM, ATP 2 mM, 35 min at 27° C. It counts as biochemical. The gist of the method: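 A Perkin Elmer Caliper/LabChip EZ Reader (Waltham, MA) platform served as the basis for this CDK7 kinase inhibition assay. The work was carried out by Biortus Biosciences, located in Jiangyin, Jiangsu Province, P.R. of China. Each CDK studied had its own kinase assay, and compounds were evaluated for their ability to block CDK7 activity.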
Chain of CDK7/Cyclin H/MAT1 complex (P50613 whole entry, species assumed): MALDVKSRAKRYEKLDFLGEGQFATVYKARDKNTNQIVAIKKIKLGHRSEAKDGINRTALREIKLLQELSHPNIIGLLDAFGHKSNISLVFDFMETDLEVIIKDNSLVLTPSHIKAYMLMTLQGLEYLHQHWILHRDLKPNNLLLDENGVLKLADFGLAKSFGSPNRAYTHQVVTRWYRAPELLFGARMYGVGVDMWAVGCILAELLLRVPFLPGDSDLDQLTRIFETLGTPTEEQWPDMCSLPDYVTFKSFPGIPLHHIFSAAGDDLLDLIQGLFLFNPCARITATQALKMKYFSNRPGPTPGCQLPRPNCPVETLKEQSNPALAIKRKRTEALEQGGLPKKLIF
Chain of CDK7/Cyclin H/MAT1 complex (P51946 whole entry partner, species assumed): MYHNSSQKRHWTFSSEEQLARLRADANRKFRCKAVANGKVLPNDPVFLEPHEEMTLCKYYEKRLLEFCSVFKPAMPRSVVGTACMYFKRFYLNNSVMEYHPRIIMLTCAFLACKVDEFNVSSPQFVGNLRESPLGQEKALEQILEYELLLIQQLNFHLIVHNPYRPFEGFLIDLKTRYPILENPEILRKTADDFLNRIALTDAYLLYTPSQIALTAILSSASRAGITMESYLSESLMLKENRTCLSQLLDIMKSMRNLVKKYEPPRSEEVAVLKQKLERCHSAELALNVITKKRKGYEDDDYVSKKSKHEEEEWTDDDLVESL
Chain of CDK7/Cyclin H/MAT1 complex (P51948 whole entry partner, species assumed): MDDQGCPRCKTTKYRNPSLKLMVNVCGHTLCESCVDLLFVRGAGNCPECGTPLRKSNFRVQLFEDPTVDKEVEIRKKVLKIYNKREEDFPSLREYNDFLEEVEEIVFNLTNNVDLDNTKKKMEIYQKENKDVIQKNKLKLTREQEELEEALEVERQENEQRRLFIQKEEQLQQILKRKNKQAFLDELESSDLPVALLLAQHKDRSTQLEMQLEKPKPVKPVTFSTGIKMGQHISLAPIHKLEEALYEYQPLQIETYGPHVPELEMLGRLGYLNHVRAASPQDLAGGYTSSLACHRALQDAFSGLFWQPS

Assay [2] concerns the target T1, CDK12 (aa686-1082)/Cyclin K complex (Homo sapiens, UniProt Q9NYV4).
T1 construct: CDK12 (aa686-1082)/Cyclin K complex
As to the kind of experiment: CDK12 inhibition assay (Caliper/LabChip EZ Reader kinase assay). The assay is classed as biochemical. The conditions noted are these: Table 1, CDK12 (aa686-1082)/Cyclin K 50 nM, ATP 2 mM, 3 hr at 27° C.

In a further assay the test system is HCC70 cells. Kind of assay: Inhibition of proliferation of HCC70 cells (CyQUANT Direct Cell Proliferation Assay, 72 hour). It counts as cell-based, human. The gist of the method: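 Human triple-negative breast cancer HCC70 cells cultured at 37° C, 5% CO2, with compound for 72 hour. Anti-proliferative effect read by CyQUANT Direct Cell Proliferation Assay. Dinaciclib, a CDK inhibitor analog and triptolide served as positive controls.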

For the next assay, the target named is CDK9/Cyclin T1 complex (Homo sapiens, UniProt P50750). Kind of assay: CDK9 inhibition assay (Caliper/LabChip EZ Reader kinase assay). The assay is classed as biochemical. The conditions noted are these: Table 1, CDK9/Cyclin T1 8 nM, ATP 2 mM, 15 min at 27° C. The essentials:
as §1

The mark [3] stands for this setting: Homo sapiens, HCC70, 72 h, read-out: Inhibition of Proliferation of HCC70 Cells (calculated IC50).

Molecules are shown by their SMILES. pIC50: −log10 of the molar value. Where two headings read alike, the source gives them in different places.

T1 sequence (Q9NYV4 686-1082, species assumed): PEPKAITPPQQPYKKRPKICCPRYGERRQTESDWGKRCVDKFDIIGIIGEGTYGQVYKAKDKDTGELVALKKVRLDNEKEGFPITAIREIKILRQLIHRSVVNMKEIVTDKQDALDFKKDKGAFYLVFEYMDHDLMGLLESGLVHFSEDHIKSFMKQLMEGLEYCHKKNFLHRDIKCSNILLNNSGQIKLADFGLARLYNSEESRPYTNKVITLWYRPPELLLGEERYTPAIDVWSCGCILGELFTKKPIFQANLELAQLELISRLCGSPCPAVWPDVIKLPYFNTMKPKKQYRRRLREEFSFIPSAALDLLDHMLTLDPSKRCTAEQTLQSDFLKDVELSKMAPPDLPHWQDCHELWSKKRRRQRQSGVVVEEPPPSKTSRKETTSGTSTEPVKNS
T1 sequence (O75909 whole entry partner, species assumed, the tested form may be a part): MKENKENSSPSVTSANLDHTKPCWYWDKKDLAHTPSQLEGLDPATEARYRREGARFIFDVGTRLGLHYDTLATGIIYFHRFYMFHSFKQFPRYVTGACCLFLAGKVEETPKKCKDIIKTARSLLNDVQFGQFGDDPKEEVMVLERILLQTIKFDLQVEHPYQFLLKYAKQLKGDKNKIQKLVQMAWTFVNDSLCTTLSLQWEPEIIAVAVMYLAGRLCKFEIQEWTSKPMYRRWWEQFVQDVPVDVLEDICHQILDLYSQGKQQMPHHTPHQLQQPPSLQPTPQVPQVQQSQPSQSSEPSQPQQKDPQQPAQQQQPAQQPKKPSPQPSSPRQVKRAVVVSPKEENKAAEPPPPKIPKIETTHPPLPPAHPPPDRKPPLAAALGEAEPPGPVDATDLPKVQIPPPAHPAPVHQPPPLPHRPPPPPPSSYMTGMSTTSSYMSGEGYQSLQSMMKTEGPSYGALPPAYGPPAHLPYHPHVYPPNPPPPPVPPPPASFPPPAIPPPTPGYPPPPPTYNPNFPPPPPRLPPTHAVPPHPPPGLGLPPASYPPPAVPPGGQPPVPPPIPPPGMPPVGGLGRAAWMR
Chain of CDK9/Cyclin T1 complex (P50750 whole entry, species assumed): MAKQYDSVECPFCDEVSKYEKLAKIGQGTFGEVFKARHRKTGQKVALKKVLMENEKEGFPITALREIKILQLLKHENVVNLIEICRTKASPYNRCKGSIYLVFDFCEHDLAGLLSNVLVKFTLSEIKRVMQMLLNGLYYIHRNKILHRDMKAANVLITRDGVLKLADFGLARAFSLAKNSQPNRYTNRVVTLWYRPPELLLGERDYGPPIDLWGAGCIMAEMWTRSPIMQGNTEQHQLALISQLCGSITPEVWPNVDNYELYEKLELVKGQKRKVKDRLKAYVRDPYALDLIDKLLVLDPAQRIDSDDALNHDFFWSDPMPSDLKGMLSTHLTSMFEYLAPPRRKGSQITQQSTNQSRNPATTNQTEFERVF
Chain of CDK9/Cyclin T1 complex (O60563 whole entry partner, species assumed): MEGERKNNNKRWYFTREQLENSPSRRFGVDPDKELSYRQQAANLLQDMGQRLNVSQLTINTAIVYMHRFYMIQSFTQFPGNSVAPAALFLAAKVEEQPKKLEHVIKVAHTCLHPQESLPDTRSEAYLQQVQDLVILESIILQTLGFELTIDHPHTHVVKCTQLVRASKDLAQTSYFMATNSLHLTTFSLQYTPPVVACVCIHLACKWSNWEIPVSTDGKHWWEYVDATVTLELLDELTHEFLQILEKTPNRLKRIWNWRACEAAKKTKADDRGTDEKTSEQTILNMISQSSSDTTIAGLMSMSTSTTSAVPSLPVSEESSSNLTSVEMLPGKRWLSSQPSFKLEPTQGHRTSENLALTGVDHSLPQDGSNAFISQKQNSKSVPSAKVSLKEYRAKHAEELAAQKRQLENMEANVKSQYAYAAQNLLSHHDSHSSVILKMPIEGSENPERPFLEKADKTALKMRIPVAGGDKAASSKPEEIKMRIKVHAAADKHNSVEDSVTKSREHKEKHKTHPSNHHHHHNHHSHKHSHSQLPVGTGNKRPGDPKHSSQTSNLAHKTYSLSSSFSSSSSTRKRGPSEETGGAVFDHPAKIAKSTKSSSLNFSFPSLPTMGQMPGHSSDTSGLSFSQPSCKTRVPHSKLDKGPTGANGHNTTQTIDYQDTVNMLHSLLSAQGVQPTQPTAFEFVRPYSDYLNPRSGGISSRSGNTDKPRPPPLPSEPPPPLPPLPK

For `CCS(=O)(=O)c1cccc2c(-c3nc(N[C@H]4CCCNC4)ncc3C(F)(F)F)c[nH]c12` [Compound 286], the pIC50 on CDK2/Cyclin E1 complex is 5.30 to 6.70; in the assay with A673 cells (Homo sapiens, A673, 72 h), 5.30 to 6.70; in assay [1] it was over 7.70; in assay [2], 5.30 to 6.70; in the assay on HCC70 cells (setting [3]), 5.30 to 6.00; at CDK9/Cyclin T1 complex, 5.30 to 6.70.

Turning to `CCc1cnc(N[C@H]2CCCNC2)nc1-c1c[nH]c2nc(C#N)ccc12` [Compound 287, (S)-3-(5-ethyl-2-(piperidin-3-ylamino)pyrimidin-4-yl)-1H-pyrrolo[2,3-b]pyridine-6-carbonitrile], the pIC50 was under 5.30 against CDK2/Cyclin E1 complex; 6.70 to 7.70 in the assay with A673 cells (Homo sapiens, A673, 72 h); over 7.70 in assay [1]; under 5.30 in assay [2]; 6.00 to 7.00 in the assay with HCC70 cells (setting [3]); under 5.30 at CDK9/Cyclin T1 complex.

Consider `FC(F)n1ccc(-c2ccc3c(-c4nc(N[C@H]5CCCNC5)ncc4C(F)(F)F)c[nH]c3c2)n1` [Compound 289, 4-[6-[1-(difluoromethyl)pyrazol-3-yl]-1H-indol-3-yl]-N-[(3S)-3-piperidyl]-5-(trifluoromethyl) pyrimidin-2-amine], for which the pIC50 against CDK2/Cyclin E1 complex was 5.30 to 6.70; in the assay with A673 cells (Homo sapiens, A673, 72 h), 6.70 to 7.70; in assay [1], 6.70 to 7.70; in assay [2], 5.30 to 6.70; in the assay with HCC70 cells (setting [3]), 6.00 to 7.00; against CDK9/Cyclin T1 complex it was 5.30 to 6.70.

Turning to `FC(F)n1cc(-c2ccc3c(-c4nc(N[C@H]5CCCNC5)ncc4C(F)(F)F)c[nH]c3c2)cn1` [Compound 290, 4-[6-[1-(difluoromethyl)pyrazol-4-yl]-1H-indol-3-yl]-N-[(3S)-3-piperidyl]-5-(trifluoromethyl) pyrimidin-2-amine], the pIC50 was 5.30 to 6.70 at CDK2/Cyclin E1 complex; 6.70 to 7.70 with A673 cells (Homo sapiens, A673, 72 h); 6.70 to 7.70 in assay [1]; 5.30 to 6.70 in assay [2]; 6.00 to 7.00 with HCC70 cells (setting [3]); 5.30 to 6.70 against CDK9/Cyclin T1 complex.

As for `FC(F)(F)c1cnc(N[C@H]2CCCNC2)nc1-c1c[nH]c2cc(-c3ccn[nH]3)ccc12` [Compound 291, N-[(3S)-3-piperidyl]-4-[6-(1H-pyrazol-3-yl)-1H-indol-3-yl]-5-(trifluoromethyl) pyrimidin-2-amine], the pIC50 was 5.30 to 6.70 on CDK2/Cyclin E1 complex; 6.70 to 7.70 with A673 cells (Homo sapiens, A673, 72 h); over 7.70 in assay [1]; 5.30 to 6.70 in assay [2]; 6.00 to 7.00 with HCC70 cells (setting [3]); 5.30 to 6.70 at CDK9/Cyclin T1 complex.

Regarding `N#C[C@@H]1CCN(C(=O)c2ccc3c(-c4nc(N[C@H]5CCCNC5)ncc4C(F)(F)F)c[nH]c3c2)C1` [Compound 292, (3R)-1-[3-[2-[[(3S)-3-piperidyl]amino]-5-(trifluoromethyl)pyrimidin-4-yl]-1H-indole-6-carbonyl] pyrrolidine-3-carbonitrile], the pIC50 is 5.30 to 6.70 against CDK2/Cyclin E1 complex; 5.30 to 6.70 against CDK2/Cyclin E1 complex (listed as 107); over 7.70 in the assay on A673 cells (listed as 107); 6.70 to 7.70 with A673 cells (Homo sapiens, A673, 72 h); over 7.70 in assay [1]; 6.70 to 7.70 in assay [1] (listed as 107). Further, the pIC50 in assay [2] is 5.30 to 6.70; in assay [2] (listed as 107) it was 6.70 to 7.70; with HCC70 cells (setting [3]), 6.00 to 7.00; against CDK9/Cyclin T1 complex it was 5.30 to 6.70; at CDK9/Cyclin T1 complex (listed as 107) it was 5.30 to 6.70.

For `N#C[C@H]1CCN(C(=O)c2ccc3c(-c4nc(N[C@H]5CCCNC5)ncc4C(F)(F)F)c[nH]c3c2)C1` [Compound 293, (3S)-1-[3-[2-[[(3S)-3-piperidyl]amino]-5-(trifluoromethyl)pyrimidin-4-yl]-1H-indole-6-carbonyl] pyrrolidine-3-carbonitrile], the pIC50 is 5.30 to 6.70 at CDK2/Cyclin E1 complex; 5.30 to 6.70 against CDK2/Cyclin E1 complex (listed as 108); 5.30 to 6.70 in the assay with A673 cells; over 7.70 in assay [1]; 6.70 to 7.70 in assay [1] (listed as 108); 5.30 to 6.70 in assay [2]. Also, the pIC50 in assay [2] (listed as 108) is 5.30 to 6.70; with HCC70 cells (setting [3]), 6.00 to 7.00; against CDK9/Cyclin T1 complex, 5.30 to 6.70; against CDK9/Cyclin T1 complex (listed as 108), 5.30 to 6.70.

With `CS(=O)(=O)c1c(C#N)ccc2c(-c3nc(N[C@H]4CCCNC4)ncc3Cl)c[nH]c12` [Compound 294, 3-[5-chloro-2-[[(3S)-3-piperidyl]amino]pyrimidin-4-yl]-7-methylsulfonyl-1H-indole-6-carbonitrile], the pIC50 against CDK2/Cyclin E1 complex was 5.30 to 6.70; at CDK2/Cyclin E1 complex (listed as 109) it was 5.30 to 6.70; in the assay with A673 cells, 6.70 to 7.70; in assay [1] it was over 7.70; in assay [1] (listed as 109), over 7.70; in assay [2], 5.30 to 6.70. Further, the pIC50 in assay [2] (listed as 109) was 6.70 to 7.70; in the assay on HCC70 cells (setting [3]), over 7.00; in the assay with HCC70 cells (listed as 109, read-out: Inhibition of Proliferation of HCC70 Cells (calculated IC50)), 6.00 to 7.00; against CDK9/Cyclin T1 complex, 5.30 to 6.70; on CDK9/Cyclin T1 complex (listed as 109), 5.30 to 6.70.

`Cn1ccc(-c2ccc3c(-c4nc(N[C@H]5CCCNC5)ncc4C(F)(F)F)c[nH]c3c2)n1` [Compound 303, 4-[6-(1-methylpyrazol-3-yl)-1H-indol-3-yl]-N-[(3S)-3-piperidyl]-5-(trifluoromethyl) pyrimidin-2-amine]: the pIC50 was 5.30 to 6.70 against CDK2/Cyclin E1 complex; under 5.30 at CDK2/Cyclin E1 complex (listed as 113); 5.30 to 6.70 in the assay on A673 cells; over 7.70 in assay [1]; 6.70 to 7.70 in assay [1] (listed as 113); 5.30 to 6.70 in assay [2]. Moreover, the pIC50 in assay [2] (listed as 113) was 5.30 to 6.70; in the assay on HCC70 cells (setting [3]), 6.00 to 7.00; on CDK9/Cyclin T1 complex, 5.30 to 6.70; against CDK9/Cyclin T1 complex (listed as 113), under 5.30.

With `O=C(O)c1ccc2c(-c3nc(N[C@H]4CCCNC4)ncc3C(F)(F)F)c[nH]c2c1` [Compound 306, 3-[2-[[(3S)-3-piperidyl]amino]-5-(trifluoromethyl)pyrimidin-4-yl]-1H-indole-6-Carboxylic acid], the pIC50 was 5.30 to 6.70 at CDK2/Cyclin E1 complex; 5.30 to 6.70 against CDK2/Cyclin E1 complex (listed as 114); 6.70 to 7.70 in the assay with A673 cells; 6.70 to 7.70 in assay [1]; 6.70 to 7.70 in assay [1] (listed as 114); 5.30 to 6.70 in assay [2]. Also, the pIC50 in assay [2] (listed as 114) was 5.30 to 6.70; in the assay on HCC70 cells (setting [3]), 6.00 to 7.00; against CDK9/Cyclin T1 complex, under 5.30; on CDK9/Cyclin T1 complex (listed as 114) it was 5.30 to 6.70.
